Results taken from PMC9737911 (2022).
One block for each compound: values may come before it.

Key:
[1] = test system: OT-Bea-4bp (DNA, aptamer) CGATCGGGTGTGGGTGGCGTAAAGGGAGCATCG; experiment: fluorescence quenching (FAM/BHQ1 beacon), single concentration; conditions: 120 mM NaCl, 2 mM CaCl2; highest concentration tested 200 nM; no quenching
[2] = test system: OT-Bea-5bp (DNA, aptamer) GCGATCGGGTGTGGGTGGCGTAAAGGGAGCATCGC; experiment: as above; conditions: 120 mM NaCl, 20 mM CaCl2; 20 mM Tris-HCl pH 7.5; 50 nM probe, 500 nM OTA; small signal change
[3] = test system: OT-Bea-2bp (DNA, aptamer) ATCGGGTGTGGGTGGCGTAAAGGGAGCAT; experiment: as above; conditions: 120 mM NaCl, 20 mM CaCl2; 20 mM Tris-HCl pH 7.5; 50 nM probe, 500 nM OTA; 37% quenching
[4] = test system: OT-Bea-4bp (DNA, aptamer) CGATCGGGTGTGGGTGGCGTAAAGGGAGCATCG; experiment: fluorescence quenching titration (FAM/BHQ1 beacon); conditions: 120 mM NaCl, 2 mM CaCl2; 20 mM Tris-HCl pH 8.5, 0.1% Tween 20, room temperature, 50 nM probe
[5] = test system: OT-Bea-1bp (DNA, aptamer) TCGGGTGTGGGTGGCGTAAAGGGAGCA; experiment: fluorescence quenching (FAM/BHQ1 beacon), single concentration; conditions: 120 mM NaCl, 20 mM CaCl2; 20 mM Tris-HCl pH 7.5; 50 nM probe, 500 nM OTA; negligible fluorescence change
[6] = test system: OT-Bea-3bp (DNA, aptamer) GATCGGGTGTGGGTGGCGTAAAGGGAGCATC; experiment: as above; conditions: 120 mM NaCl, 20 mM CaCl2; 20 mM Tris-HCl pH 7.5; 50 nM probe, 500 nM OTA; 41% quenching

Compound: C[C@@H]1Cc2c(Cl)cc(C(=O)N[C@@H](Cc3ccccc3)C(=O)O)c(O)c2C(=O)O1
binding [2]: yes | binding [3]: yes | Kd [4]: 16 ± 2 nM | binding [5]: weak | binding [6]: yes

Compound: C[C@@H]1Cc2ccc(C(=O)N[C@@H](Cc3ccccc3)C(=O)O)c(O)c2C(=O)O1
binding [1]: no

Compound: C[C@H]1CCCC(=O)CCC/C=C/c2cc(O)cc(O)c2C(=O)O1
binding [1]: no

Second part, the compound after the results:

binding [1]: no
Compound: CCCC[C@@H](C)[C@@H](OC(=O)C[C@@H](CC(=O)O)C(=O)O)[C@H](C[C@@H](C)CCCCCC[C@@H](O)C[C@H](O)[C@H](C)N)OC(=O)C[C@@H](CC(=O)O)C(=O)O

binding [1]: no
Compound: CCCC[C@@H](C)[C@@H](OC(=O)C[C@@H](CC(=O)O)C(=O)O)[C@H](C[C@@H](C)C[C@H](O)CCCC[C@@H](O)C[C@H](O)[C@H](C)N)OC(=O)C[C@@H](CC(=O)O)C(=O)O
